The numbers were not newly measured in patent publication US6700032B1, “Wound care management” (Leatherite Pty Limited, priority 1996, dated 2004), which cites them from elsewhere.

For this data set the following is noted: recommended concentrations.

As for “2,4,4′-trichloro-2′-hydroxy diphenyl ether [Triclosan]”, the toxicological testing result is on record as “safe at recommended concentrations”.
